Measurements reported in paper PMC5768759 (2018).

What was measured:
[1] = system: F-duplex-T (DNA, hairpin, Spacer18 (hexaethylene glycol) between 10 and 11) TATAGCTATATATAGCTATA; test: FRET melting; conditions: 5 mM K+, 50 mM Li+; 5 mM lithium cacodylate, pH 7.4; compound 0.2 μM, DNA 0.2 μM; no increment above error
[2] = system: ht21 (DNA, G4) GGGTTAGGGTTAGGGTTAGGG; test: fluorescent intercalator displacement; conditions: 100 mM K+; 10 mM lithium cacodylate, pH 7.4; thiazole orange 0.5 μM displaced; DNA 0.25 μM; nearly 6-fold weaker than c-myc
[3] = system: c-myc (DNA, G4) TGAGGGTGGGTAGGGTGGGTAA; test: fluorescent intercalator displacement; conditions: 100 mM K+; 10 mM lithium cacodylate, pH 7.4; thiazole orange 0.5 μM displaced; DNA 0.25 μM
[4] = system: ds26 (DNA, duplex) CAATCGGATCGAATTCGATCCGATTG; test: fluorescent intercalator displacement; conditions: 100 mM K+; 10 mM lithium cacodylate, pH 7.4; thiazole orange 0.75 μM displaced; DNA 0.25 μM; nearly 10-fold weaker than c-myc

| SMILES | binding [1] | DC50 [2] | DC50 [3] | DC50 [4] |
| --- | --- | --- | --- | --- |
| NCCCCCCCN.[Cl-].[Cl-].[Pt+2].[Pt+2].c1ccc(-c2ccnc3c2ccc2c(-c4ccccc4)ccnc23)cc1.c1ccc(-c2ccnc3c2ccc2c(-c4ccccc4)ccnc23)cc1 | no | – | – | – |
| NCCCCCCCCCN.[Cl-].[Cl-].[Pt+2].[Pt+2].c1ccc(-c2ccnc3c2ccc2c(-c4ccccc4)ccnc23)cc1.c1ccc(-c2ccnc3c2ccc2c(-c4ccccc4)ccnc23)cc1 | no | 1.17 µM | 0.20 µM | 1.84 µM |
| NCCCCCCCCN.[Cl-].[Cl-].[Pt+2].[Pt+2].c1ccc(-c2ccnc3c2ccc2c(-c4ccccc4)ccnc23)cc1.c1ccc(-c2ccnc3c2ccc2c(-c4ccccc4)ccnc23)cc1 | no | – | – | – |
| NCCCCCCCCCCN.[Cl-].[Cl-].[Pt+2].[Pt+2].c1ccc(-c2ccnc3c2ccc2c(-c4ccccc4)ccnc23)cc1.c1ccc(-c2ccnc3c2ccc2c(-c4ccccc4)ccnc23)cc1 | no | – | – | – |
